Laboratory results: ChEMBL document CHEMBL5042483, “Discovery and Mechanism of SARS-CoV-2 Main Protease Inhibitors” (J Med Chem, 2022)
The source made the active and inactive calls. The calls are words filed in the database; no cut-off is given here.

Tests used:
SARS-CoV-2 [1] = assay: (§1) Antiviral activity against SARS-CoV-2 USA_WA1/2020 infected in human iPSC derived lung organoids assessed as reduction in viral RNA in cell supernatant at 5 uM pretreated for 2 hrs with compound followed by viral infection for 2 hrs then followed by washout and replacement with fresh medium and measured after 72 hrs by qRT-PCR analysis relative to control; type: functional, organism-based; conditions: Severe acute respiratory syndrome coronavirus 2, time 76.0 hrs
SARS-CoV-2 [2] = assay: as §1, with “intracellular fraction” for “cell supernatant”; type: functional, organism-based; conditions: Severe acute respiratory syndrome coronavirus 2, time 76.0 hrs

O=c1c2ccccc2[se]n1-c1cccc(C(F)(F)F)c1
Activity (SARS-CoV-2 [1]): Active
Activity (SARS-CoV-2 [2]): Active
